The conditions of series [1]: cited from earlier work.
The conditions of series [2]: cited from earlier work. The source holds these as a separate data set.
A short description of series [3]: Dissolution of API from ODTs (USP 31 guidelines). As to conditions: 70-80N hardness. The format is physicochemical. On the procedure:
Dissolution properties of the ODTs were determined by following USP 31 guidelines for each model APIs. The percent of drug released at predetermined time intervals were calculated and plotted against the sampling time to obtain the release profiles. ODTs that fall within a 70-80N hardness range were studied.

Consider `CC(=O)Nc1ccc(O)cc1` [Acetaminophen], for which, in series [1], the pKa is recorded as 9.2. The “solubility in water (in words)” value in series [2] is given as “highly water soluble”. In addition, the “time to full release of API from ODT” value in series [3] (acetaminophen ODTs) was no more than 10 min.

Regarding `CC(=O)Oc1ccccc1C(=O)O` [Aspirin], the “solubility in water (in words)” value in series [2] is on record as “highly water soluble”.

Take `CN(C)CC[C@@H](c1ccc(Cl)cc1)c1ccccn1.O=C(O)/C=C\C(=O)O` [CPM, Chlorpheniramine Maleate]: the pKa in series [1] is on record as 9.2. Moreover, in series [3] (CPM ODTs), the “time to full release of API from ODT” value is no more than 5 min.

On to `COc1ccc2cc([C@H](C)C(=O)O)ccc2c1` [Naproxen], for which the “time to full release of API from ODT” value in series [3] (naproxen ODTs) was no more than 10 min.

Consider `OC[C@@H](O)[C@@H](O)[C@H](O)[C@H](O)CO` [Spray dried mannitol, mannitol], for which the “time in which 5 g dissolves in 150 mL of water” value in series [2] (at 20° C.) is given as “approximately 5 sec”.

`Cn1c(=O)c2nc[nH]c2n(C)c1=O` [Theophylline]: the pKa in series [1] was 8.7. For the same compound, the solubility in water result in series [2] (neutral distilled water at 25° C.) was “about 8 mg/mL”. In addition, the “time to full release of API from ODT” value in series [3] (theophylline ODTs) is “fully released at five minutes”.

The record behind these values is patent publication US20110105441A1, “Stable Orally Disintegrating Tablets Having Low Superdisintegrant” (FMC CORPORATION, priority 2009, published 2011).
